This passage reports TGI results from PubChem BioAssay (NCI).

What all share (assay): growth of human tumour cells (NCI), 48 h
Assay [1] has as its system ACHN renal.
Assay [2] has as its system CAKI-1 renal.
The test system of assay [3] is HT29 colon.
Assay [4] concerns KM12 colon.
Assay [5] has as its system M14 melanoma.
Assay [6] has as its system MCF7 breast.
Assay [7] has as its system MDA-N.
Assay [8] relates to NCI-H226 lung.
Assay [9] relates to NCI-H522 lung.
In assay [10] the test system is OVCAR-8 ovarian.
For assay [11], the system named is PC-3 prostate.
Assay [12] has as its system SF-268 CNS.
Assay [13] relates to SNB-75 CNS.
The test system of assay [14] is BT-549 breast.

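Method: 48-hour compound exposure of cells in 96-well plates, five concentrations, linear interpolation of endpoints. TGI marks complete inhibition of growth.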 *1 amine or outer side, *2 acyl side, *3 side chain or, on linkers, in order; H or OH if unused. Where a SMILES comes first, the peptide text is derived from it. Bridges are numbered along the chain shown (N, C = ends). [ ]: non-standard residue; d: D form. The star is where a group is joined. ξ: configuration not given here. X34 = O=C(C(CCCCNO[*:3])N[*:1])[*:2]; Fmoc = O=C(OCC1c2ccccc2-c2ccccc21)*; ξW = NC(Cc1c[nH]c2ccccc12)C(=O)O; ξP = O=C(O)C1CCCN1

With `C[C@@]12[C@H]3CC[C@@H]1[C@H](O)C(=O)N2CC3`, the TGI in assay [1], in assay [2], in assay [3], in [4], in assay [5] and in assay [6] was greater than 100 µM in each case. In addition, the TGI in assay [7], in assay [8], in assay [9], in assay [10], in assay [11] and in assay [12] was greater than 100 µM in each case. In addition, in assay [13], the TGI was greater than 100 µM.
Regarding `NC(=O)CNC(=O)C1CCCN1C(=O)C1CCCCNOC(=O)CC[C@@H](NC(=O)OCC2c3ccccc3-c3ccccc32)C(=O)NC(Cc2c[nH]c3ccccc23)C(=O)N1` (some centres undefined) (Fmoc-[dE][ξW][X34][ξP]G-NH2; ester 1-3), the TGI in assay [1], in assay [14], in assay [2], in assay [3], in [4] and in assay [5] was greater than 100 µM each time. In addition, the TGI in assay [6], in [8], in assay [9], in assay [10], in assay [11] and in assay [12] was greater than 100 µM throughout. For the same compound, in assay [13], the TGI is greater than 100 µM.
Consider `CSc1nc(Cl)c2c(n1)Sc1nc3cc4c(cc3n1C2O)OCCO4` (centres undefined), for which the TGI in assay [1] was 26.8 µM; in assay [14], 23.3 µM; in [2] it was 1.21 µM; in assay [3], 18.9 µM; in assay [4], greater than 100 µM; in assay [5], 15.5 µM. In addition, the TGI in [6] was determined as 27.7 µM; in assay [8], 0.889 µM; in assay [9], 0.386 µM; in assay [10], 3.03 µM; in assay [11] it was 65.2 µM; in assay [12], 80.3 µM. In addition, the TGI in [13] was found to be 36.4 µM.
Consider `N.N.N.O=[N+]([O-])[O-].O=[N+]([O-])[O-].O=[N+]([O-])[O-].O=[N+]([O-])[O-].[Co+3]`, for which the TGI in assay [1], in [3], in assay [4], in assay [5], in [9] and in assay [10] was greater than 100 µM throughout. The TGI in [12] and in assay [13] was greater than 100 µM throughout.
On to `CC[C@]1(Cc2ccc(OC)c(OC)c2)CN(S(=O)(=O)c2ccc(C)cc2)C[C@@H]1OC(C)=O`, for which the TGI in assay [1], in [2], in [3], in [4], in assay [5] and in assay [6] was greater than 100 µM throughout. Further, the TGI in [7], in assay [8], in assay [10], in [11], in [12] and in assay [13] was greater than 100 µM each time.
With `Cc1nnc(Nc2ccccc2)o1`, the TGI in assay [1], in assay [2], in assay [3], in assay [4], in assay [5] and in [6] was greater than 100 µM each time. Besides, the TGI in assay [7], in assay [8], in [9], in assay [10], in [11] and in assay [12] was greater than 100 µM throughout. In [13], this compound yielded a TGI greater than 100 µM.
On to `CC(=O)OCC(C)C1=C(O)C(=O)C2(C)C/C=C(/C)CC/C=C(\C)CCC(O)C(C)CCC12` (centres undefined), for which the TGI in assay [1] was 30.9 µM; in assay [2], 35.5 µM; in assay [3], 33.3 µM; in assay [4], 28.7 µM; in assay [5], 33.8 µM; in [6], 44.2 µM. Further, the TGI in assay [7] is 33.6 µM; in assay [8] it was 33.5 µM; in assay [9], 32.6 µM; in [10], 46.6 µM; in assay [11], 38.1 µM; in assay [12], 35.4 µM. In addition, in [13], the TGI amounted to 30.5 µM.
Regarding `O=C(Nc1ccc(Br)cc1)c1c(-c2ccccc2)c2ccc(O)cc2oc1=O`, the TGI in [1], in assay [2], in assay [3], in assay [4], in assay [5] and in assay [6] was greater than 10 µM throughout. In addition, the TGI in assay [7], in [8], in [9], in assay [10], in assay [11] and in assay [12] was greater than 10 µM in each case. The TGI in [13] was greater than 10 µM.
Take `c1ccc(C2C3=C(Nc4ncnn42)c2ccccc2C3)cc1` (centres undefined): the TGI was greater than 100 µM in assay [1]; greater than 100 µM in [2]; greater than 100 µM in assay [3]; greater than 100 µM in assay [4]; greater than 100 µM in [5]; 26.5 µM in assay [9]. Besides, the TGI in [10], in assay [12] and in assay [13] was greater than 100 µM in each case.
For `CN1C(=O)N(c2ccccc2)C2(CCN(CC3COc4ccccc4O3)CC2)C1=O` (centres undefined), the TGI in assay [1], in assay [2], in assay [3], in [4], in assay [5] and in [6] was greater than 100 µM in each case. For the same compound, the TGI in [7], in [8], in assay [9], in [10], in assay [11] and in assay [12] was greater than 100 µM in each case.
As to `COC(=O)C(CCC#N)(CCC#N)C(=O)OC`, the TGI in [1], in assay [3], in [4], in assay [5], in assay [8] and in [9] was greater than 100 µM each time. The TGI in [10] and in assay [12] was greater than 100 µM in each case.
In the case of `CC(O[Si](c1ccccc1)(c1ccccc1)C(C)(C)C)[C@H](NC(=O)OC(C)(C)C)C(=O)O[Si](c1ccccc1)(c1ccccc1)C(C)(C)C` (some centres undefined), the TGI was found to be 23.9 µM in assay [1]; 27 µM in assay [2]; 23.9 µM in [3]; 24.3 µM in assay [4]; 29.4 µM in [5]; 48.6 µM in assay [6]. For the same compound, the TGI in [7] worked out at 34.1 µM; in [10], 33.6 µM; in assay [11] it was 20.5 µM; in assay [12] it was 31.1 µM; in assay [13], 29 µM.
With `COc1ccc(-n2c(=O)c3[nH]cnc3n(-c3ccc(OC)cc3)c2=S)cc1`, the TGI in [1], in [14], in [2], in [3], in assay [4] and in assay [5] was greater than 100 µM throughout. In addition, the TGI in assay [6], in assay [8], in assay [9], in assay [10], in assay [11] and in assay [12] was greater than 100 µM each time. For the same compound, the TGI in assay [13] was greater than 100 µM.
Regarding `COC(=O)CC(C(C(=O)OC)C(=O)OC)N1C(=O)OCC1c1ccccc1` (centres undefined), the TGI in [1], in assay [2], in assay [3], in assay [4], in assay [5] and in assay [8] was greater than 100 µM in each case. Also, the TGI in [9], in [10], in assay [12] and in [13] was greater than 100 µM each time.
As to `CN(C)CCCOc1nc2c(c(=O)n(C)c(=O)n2C)n1C` (tested in a mixture with another compound), the TGI in assay [1] was 68.8 µM; in assay [14], greater than 100 µM; in assay [2], 66.3 µM; in assay [3], greater than 100 µM; in [4], greater than 100 µM; in assay [5], greater than 100 µM. Moreover, the TGI in [6] was greater than 100 µM; in assay [8], 47.7 µM; in [9], greater than 100 µM; in [10], greater than 100 µM; in [11], greater than 100 µM; in assay [12], greater than 100 µM. Further, the TGI in assay [13] was greater than 100 µM.
Regarding `Cc1cc(N(CCC#N)CCC#N)ccc1/C=N/NC(=O)c1cc(Cl)ccc1O`, the TGI in [2], in assay [3], in [5], in [6], in assay [7] and in assay [8] was greater than 100 µM throughout. Further, the TGI in assay [9], in assay [10], in [11], in [12] and in [13] was greater than 100 µM throughout.
For `CC(C)(C)c1ccc2c(c1)CNCCNCc1cc(C(C)(C)C)ccc1OCC1(CO2)COc2ccc(C(C)(C)C)cc2CNCCNCc2cc(C(C)(C)C)ccc2OC1`, the TGI in assay [1] is 2.98 µM; in assay [2], 2.74 µM; in assay [3] it was 0.472 µM; in assay [4], 0.933 µM; in assay [5] it was 1.45 µM; in [7] it was 2.14 µM. Moreover, the TGI was 2.26 µM in assay [8]; 0.421 µM in [9]; 1.45 µM in assay [10]; 2.93 µM in [11]; 5.12 µM in assay [12]; 2.96 µM in assay [13].
Consider `CC1=C(O)C(=O)[C@@H]2O[C@@H]2C1=O`, for which the TGI in assay [2] was 16.7 µM; in [3], 36.6 µM; in assay [4] it was 27.3 µM; in [6] it was 31.7 µM; in assay [8], 37 µM; in assay [9], 4.56 µM. Further, the TGI in [10] came to 24.7 µM; in assay [12] it was 30.5 µM; in assay [13], 31.9 µM.
Consider `c1ccc2c(c1)OC(N1CCCC1)c1cnc(N3CCCC3)nc1-2` (centres undefined), for which the TGI is greater than 100 µM in [1]; 60.9 µM in assay [14]; 78 µM in [2]; greater than 100 µM in [3]; greater than 100 µM in assay [4]; greater than 100 µM in [5]. Moreover, the TGI in assay [6] was 52.9 µM; in assay [8], greater than 100 µM; in assay [10], greater than 100 µM; in assay [11] it was greater than 100 µM; in assay [12] it was greater than 100 µM; in [13], 57.1 µM.
Take `O=c1[nH]n2c(=O)cc[nH]c2c1-c1nnns1`: the TGI in assay [1], in [2], in [3], in [4], in assay [5] and in assay [8] was greater than 100 µM throughout. For the same compound, the TGI in assay [9], in [12] and in assay [13] was greater than 100 µM each time.
For `CC(CN1c2ccccc2Sc2ccccc21)N(C)C` (centres undefined), the TGI was 30.7 µM in [1]; 34.1 µM in [2]; 30.8 µM in assay [3]; 37.6 µM in assay [4]; 33.9 µM in assay [5]; 42.8 µM in [6]. Also, the TGI in assay [8] came to 34.5 µM; in assay [9], 36.3 µM; in assay [10] it was 29.8 µM; in assay [11], 31.2 µM; in assay [12] it was 33.5 µM; in assay [13], 15.2 µM.
Regarding `NC(N)=NS(=O)(=O)c1ccc(NCc2c3ccccc3[n+]([O-])c3ccccc23)cc1`, the TGI is 70.4 µM in [1]; greater than 100 µM in [2]; greater than 100 µM in assay [3]; greater than 100 µM in assay [4]; greater than 100 µM in assay [5]; 72.8 µM in [8]. The TGI is greater than 100 µM in assay [9], greater than 100 µM in [10], 86.6 µM in assay [12] and 84.8 µM in [13].
As to `COc1ccc(C(C#N)NNC(=O)c2ccccc2O)cc1OC` (centres undefined), the TGI is 96.6 µM in assay [1]; 61.4 µM in assay [2]; greater than 100 µM in [3]; greater than 100 µM in assay [4]; 46.7 µM in [5]; 22.4 µM in assay [8]. Also, the TGI in [9] was 30.1 µM; in assay [10], greater than 100 µM; in assay [12], greater than 100 µM; in assay [13], greater than 100 µM.
